{"source": "paper PMC7866972", "about": "“Crosstalk of Cancer Signaling Pathways by Cyclic Hexapeptides and Anthraquinones from Rubia cordifolia” (Molecules, 2021)", "type_in_all_cases": "cell-based", "key": {"Hedgehog": {"test_system": "Hedgehog", "experiment": "Hedgehog luciferase reporter assay (PMA induced)", "details": "Homo sapiens; for activity at 1 µg/mL: Hela cells, 6 h, read-out: percentage of luciferase induction Hdghog/PMA", "protocol": "(§1) Hela cells from ATCC were plated in white opaque 384 well plates at a density of 4300 cells/well in 30 µL of a growth medium (DMEM with 10% FBS and 1% Pen/step). The next day, the medium was aspirated and replaced with DMEM containing 10% FBS. The cells were transfected with respective plasmids using the X-tremeGENE HP transfection reagent (Roche). Luciferase vectors used in this assay are summarized in Table S2, Supporting Information. After 24 h of transfection, the test agents were added to the transfected cells, followed 30 min later by an inducing agent (IL-6 for Stat 3, TGF-beta for Smad, m-wnt3a for Wnt and PMA for AP-1, NF-kB, E2F, Myc, ETS, Notch and Hedgehog). No inducer was added for FoXO, miR-21, and […]. After 4 h or 6 h of induction, the cells were lysed by the addition of the One-Glo luciferase assay system (Promega, Madison, WI, USA). The light output was detected in a Glomax Multi+ detection system with the Instinct Software (Promega, Madison, WI, USA). This luciferase assay determines if the test agent was able to inhibit the activation of cancer-related signaling pathways. In the case of FoxO and mi-R21, the enhanced luciferase activity by the test agent was assessed."}, "NF-κB": {"test_system": "NF-κB", "experiment": "NF-κB luciferase reporter assay (PMA induced)", "details": "Homo sapiens; for activity at 1 µg/mL: Hela cells, 4 h, read-out: percentage of luciferase induction NF-kB/PMA", "protocol": "as §1"}, "Ets": {"test_system": "Ets", "experiment": "Ets luciferase reporter assay (PMA induced)", "details": "Homo sapiens; for activity at 1 µg/mL: Hela cells, 4 h, read-out: percentage of luciferase induction Ets/PMA", "protocol": "as §1"}, "pTK control vector": {"test_system": "pTK control vector", "experiment": "pTK control vector luciferase assay (minimal thymidine kinase promoter)", "details": "no inducer; for percentage of luciferase induction pTK: Hela cells, 1µg/ml", "protocol": "as §1"}, "Smad": {"test_system": "Smad", "experiment": "Smad luciferase reporter assay (TGF-beta induced)", "details": "for percentage of luciferase induction Smad/TGF-b: Hela cells, 1µg/ml, 4 h", "protocol": "as §1"}, "Ap-1": {"test_system": "Ap-1", "experiment": "AP-1 luciferase reporter assay (PMA induced)", "details": "for activity at 1 µg/mL: Hela cells, 4 h, read-out: percentage of luciferase induction Ap-1/PMA", "protocol": "as §1"}, "Notch": {"test_system": "Notch", "experiment": "Notch luciferase reporter assay (PMA induced)", "details": "Homo sapiens; for activity at 1 µg/mL: Hela cells, 6 h, read-out: percentage of luciferase induction Notch/PMA", "protocol": "as §1"}, "miR-21": {"test_system": "miR-21", "experiment": "miR-21 luciferase reporter assay (no inducer)", "details": "Hela cells, 1µg/ml, 6 h", "protocol": "as §1"}, "Myc": {"test_system": "Myc", "experiment": "Myc luciferase reporter assay (PMA induced)", "details": "Homo sapiens; for activity at 1 µg/mL: Hela cells, 4 h, read-out: percentage of luciferase induction Myc/PMA", "protocol": "as §1"}, "Wnt": {"test_system": "Wnt", "experiment": "Wnt luciferase reporter assay (m-wnt3a induced)", "details": "Homo sapiens; for activity at 1 µg/mL: Hela cells, 6 h, read-out: percentage of luciferase induction Wnt/m-wnt 3a", "protocol": "as §1"}, "FoxO": {"test_system": "FoxO", "experiment": "FoxO luciferase reporter assay (no inducer)", "details": "for percentage of luciferase induction FoxO: Hela cells, 1µg/ml, 6 h", "protocol": "as §1"}, "MDA-MB 231 cells": {"test_system": "MDA-MB 231 cells", "experiment": "Cytotoxicity assay (WST-8) of SGF/SIF treated and untreated peptide", "details": "48 h, SGF pH 1.2 60 min or SIF pH 7.5 with pancreatin 8 h, 37 °C, unpaired t-test", "protocol": "(§2) T98G and MDA-MB 231 cells from ATCC, were plated in clear 384-well plates at an initial density of 1700 cells/well for T98G cells and 2500 cells/well of MDA-MB 231 cells in 40 µL of a growth medium (DMEM with 10% FBS and 1% Pen/step). The next day, the test agents were added at the specified concentration, the treatment continued for 48 h, and the cell viability was finally assessed using the WST-8 assay Cell Counting Kit from Bimake, according to the manufacturer’s instructions. The results were measured by absorbance at 450 nm using the SpectraMax M5 plate reader (Molecular Devices). The cell viability was calculated in comparison to the DMSO control.\n(§3) The simulated gastric fluid was prepared as described in the United States Pharmacopoeia (USP, 1995) and consists of 0.2% w/v of NaCl and 0.7% v/v of hydrochloric acid at pH 1.2. Aliquots (48 µL) of SGF were placed in 1.5-mL microcentrifuge tubes and incubated in a water bath at 37 °C [35]. In addition, 2 µL of compound 6 (10 mg/mL in DMSO) was added to each of the SGF vials to start the digestion reaction. The incubation was continued for 60 min and the digestion was stopped with 150 µL of ice-cold cell culture media. The digested samples were used for the cytotoxicity and luciferase assays at different concentrations and the activities were compared between the untreated and SGF treated peptide samples. […]"}, "T98G cells": {"test_system": "T98G cells", "experiment": "Cytotoxicity assay (WST-8) of SGF/SIF treated and untreated peptide", "details": "48 h, SGF pH 1.2 60 min or SIF pH 7.5 with pancreatin 8 h, 37 °C, unpaired t-test", "protocol": "as §2, §3"}, "[1]": {"test_system": "cancer-related signaling pathways in HeLa cells", "experiment": "Panel of luciferase reporter genes for cancer-related signaling pathways", "protocol": "as §1\nThe simulated gastric fluid was prepared as described in the United States Pharmacopoeia (USP, 1995) and consists of 0.2% w/v of NaCl and 0.7% v/v of hydrochloric acid at pH 1.2. Aliquots (48 µL) of SGF were placed in 1.5-mL microcentrifuge tubes and incubated in a water bath at 37 °C [35]. In addition, 2 µL of compound 6 (10 mg/mL in DMSO) was added to each of the SGF vials to start the digestion reaction. The incubation was continued for 60 min and the digestion was stopped with 150 µL of ice-cold cell culture media. The digested samples were used for the cytotoxicity and luciferase assays at different concentrations and the activities were compared between the untreated and SGF treated peptide samples."}, "Stat3": {"test_system": "Stat3", "experiment": "Stat3 luciferase reporter assay (IL-6 induced)", "details": "Homo sapiens; for activity at 1 µg/mL: Hela cells, 4 h, read-out: percentage of luciferase induction Stat3/IL-6", "protocol": "as §1"}, "E2F": {"test_system": "E2F", "experiment": "E2F luciferase reporter assay (PMA induced)", "details": "Homo sapiens; for activity at 1 µg/mL: Hela cells, 4 h, read-out: percentage of luciferase induction E2F/PMA", "protocol": "as §1"}, "[2]": {"details": "SGF treated compound (pH 1.2, 37 °C, 60 min)"}, "[3]": {"details": "HeLa cells, agent added 30 min before PMA, harvested 4 h later, ND = No activity detected"}}, "note": "“Also recorded” adds a separate entry of the source. Like-named read-outs stand apart in the source and are kept apart here."}
{"smiles": "COc1ccc(C[C@H]2C(=O)N[C@@H](C)C(=O)N(C)[C@H]3Cc4ccc(cc4)Oc4cc(ccc4O)C[C@@H](C(=O)N[C@H](C)C(=O)N[C@@H](C)C(=O)N2C)N(C)C3=O)cc1", "note": "[Compound 6, deoxybouvardin]", "values": [{"measurement": "IC50", "setting": "Hedgehog; HeLa cells, agent added 30 min before PMA, harvested 6 h later, ND = No activity detected, read-out: IC50 Hdghog/PMA", "result": 0.2, "unit": "µg/mL"}, {"measurement": "activity at 1 µg/mL", "setting": "Hedgehog; [2]", "result": 5, "unit": "%"}, {"measurement": "activity at 1 µg/mL", "setting": "Hedgehog; untreated compound", "result": 1, "unit": "%"}, {"measurement": "IC50", "setting": "NF-κB; [3]", "result": 0.17, "unit": "µg/mL"}, {"measurement": "activity at 1 µg/mL", "setting": "NF-κB; [2]", "result": 34, "unit": "%"}, {"measurement": "activity at 1 µg/mL", "setting": "NF-κB; untreated compound", "result": 33, "unit": "%"}, {"measurement": "IC50", "setting": "Ets; [3]", "result": 0.18, "unit": "µg/mL"}, {"measurement": "activity at 1 µg/mL", "setting": "Ets; [2]", "result": 58, "unit": "%"}, {"measurement": "activity at 1 µg/mL", "setting": "Ets; untreated compound", "result": 60, "unit": "%"}, {"measurement": "percentage of luciferase induction pTK", "setting": "pTK control vector; [2]", "result": 48, "unit": "%"}, {"measurement": "percentage of luciferase induction pTK", "setting": "pTK control vector; untreated compound", "result": 50, "unit": "%"}, {"measurement": "IC50", "setting": "pTK control vector; Homo sapiens, HeLa cells, ND = No activity detected", "result": 0.9, "unit": "µg/mL"}, {"measurement": "percentage of luciferase induction Smad/TGF-b", "setting": "Smad; [2]", "result": 41, "unit": "%"}, {"measurement": "percentage of luciferase induction Smad/TGF-b", "setting": "Smad; untreated compound", "result": 33, "unit": "%"}, {"measurement": "IC50", "setting": "Smad; Homo sapiens, HeLa cells, agent added 30 min before TGF-beta, harvested 4 h later, ND = No activity detected", "result": 0.3, "unit": "µg/mL"}, {"measurement": "IC50", "setting": "Ap-1; [3]", "result": 0.22, "unit": "µg/mL"}, {"measurement": "activity at 1 µg/mL", "setting": "Ap-1; [2]", "result": 43, "unit": "%"}, {"measurement": "activity at 1 µg/mL", "setting": "Ap-1; untreated compound", "result": 48, "unit": "%"}, {"measurement": "IC50", "setting": "Notch; HeLa cells, agent added 30 min before PMA, harvested 6 h later, ND = No activity detected", "result": 0.093, "unit": "µg/mL"}, {"measurement": "activity at 1 µg/mL", "setting": "Notch; [2]", "result": 56, "unit": "%"}, {"measurement": "activity at 1 µg/mL", "setting": "Notch; untreated compound", "result": 65, "unit": "%"}, {"measurement": "percentage of luciferase induction miR21", "setting": "miR-21; [2]", "result": 150, "unit": "%"}, {"measurement": "percentage of luciferase induction miR21", "setting": "miR-21; untreated compound", "result": 183, "unit": "%"}, {"measurement": "IC50", "setting": "Myc; [3]", "result": 0.075, "unit": "µg/mL"}, {"measurement": "activity at 1 µg/mL", "setting": "Myc; [2]", "result": 20, "unit": "%"}, {"measurement": "activity at 1 µg/mL", "setting": "Myc; untreated compound", "result": -8, "unit": "%"}, {"measurement": "IC50", "setting": "Wnt; HeLa cells, agent added 30 min before m-wnt 3a, harvested 6 h later, ND = No activity detected", "result": 0.05, "unit": "µg/mL"}, {"measurement": "activity at 1 µg/mL", "setting": "Wnt; [2]", "result": 12, "unit": "%"}, {"measurement": "activity at 1 µg/mL", "setting": "Wnt; untreated compound", "result": 6, "unit": "%"}, {"measurement": "percentage of luciferase induction FoxO", "setting": "FoxO; [2]", "result": 68, "unit": "%"}, {"measurement": "percentage of luciferase induction FoxO", "setting": "FoxO; untreated compound", "result": 51, "unit": "%"}, {"measurement": "IC50", "setting": "FoxO; Homo sapiens, HeLa cells, harvested 6 h later, ND = No activity detected", "result": 0.1, "unit": "µg/mL"}, {"measurement": "activity (cell viability) of SGF or SIF treated compared to untreated compound", "setting": "MDA-MB 231 cells", "result": "remained the same before and after the treatment; also recorded: non-significant"}, {"measurement": "activity (cell viability) of SGF or SIF treated compared to untreated compound", "setting": "T98G cells", "result": "remained the same before and after the treatment; also recorded: non-significant"}, {"measurement": "activity of SGF treated peptide across the panel of cancer signaling pathways compared to untreated peptide", "setting": "[1]; Hela cells, SGF treated, Table S1", "result": "comparable to the untreated peptide"}, {"measurement": "IC50", "setting": "[1]; Homo sapiens, HeLa cells, summary statement on Table 1, read-out: IC50 values for several pathways across the panel", "result": "< 0.5", "unit": "µg/mL"}, {"measurement": "IC50", "setting": "Stat3; HeLa cells, agent added 30 min before IL-6, harvested 4 h later, ND = No activity detected", "result": 0.18, "unit": "µg/mL"}, {"measurement": "activity at 1 µg/mL", "setting": "Stat3; [2]", "result": -4, "unit": "%"}, {"measurement": "activity at 1 µg/mL", "setting": "Stat3; untreated compound", "result": -4, "unit": "%"}, {"measurement": "IC50", "setting": "E2F; [3]", "result": 0.36, "unit": "µg/mL"}, {"measurement": "activity at 1 µg/mL", "setting": "E2F; [2]", "result": 8, "unit": "%"}, {"measurement": "activity at 1 µg/mL", "setting": "E2F; untreated compound", "result": 82, "unit": "%"}]}
